Results as given in US6251949A, “Oxime derivatives, hydrazone derivatives and use thereof” (Shionogi & Co., Ltd., priority 1996, dated 2001).

Assays:
Type in all cases: in vivo
Pyricularia oryzae = conditions: rice seedling, 6 days after inoculation
tachykinin receptor [1] = target: T1, tachykinin receptor (Cavia porcellus, UniProt P30547); assay: Tachykinin receptor antagonistic effect: capsaicin-induced increase in blood vessel permeability, urinary bladder; conditions: guinea pig, iv, read-out: ED50 Guinea pig urinary bladder
T1 construct: from tissue; host or cells: guinea pig trachea, in vivo
Method: (§1) The tachykinin receptor antagonistic effect of a compound according to the present invention was investigated by the method described below.
(§2) [Effect of compound on capsaicin-induced increase in blood vessel permeability]
(§3) 5 Minutes after giving Evans Blue (30 mg/kg, i.v.) to a guinea pig anesthetized with pentobarbital (30 mg/kg, i.p.), a test compound dissolved in […] was injected intravenously. After further 5 minutes, capsaicin (0.15 mg/kg, i.v.) was given to induce the plasma transudation. 5 Minutes after administration of capsaicin, the guinea pig was sacrificed to isolate the trachea and the urinary bladder. After extraction with formamide for 24 hours, the dye content in each tissue was quantified on the basis of the absorbance at 620 nm, and the amount of the dye transudated into the tissue was calculated from the calibration curve.
(§4) By the method described above, the amount of the compound required to obtain 50% suppression (ED50) was determined and represented in units (mg/kg).

tachykinin receptor [2] = target: T1, tachykinin receptor; assay: Tachykinin receptor antagonistic effect: capsaicin-induced increase in blood vessel permeability, trachea; conditions: guinea pig, iv, read-out: ED50 Guinea pig trachea
Method: as §1, §2, §3, §4

T1 sequence (P30547 whole entry): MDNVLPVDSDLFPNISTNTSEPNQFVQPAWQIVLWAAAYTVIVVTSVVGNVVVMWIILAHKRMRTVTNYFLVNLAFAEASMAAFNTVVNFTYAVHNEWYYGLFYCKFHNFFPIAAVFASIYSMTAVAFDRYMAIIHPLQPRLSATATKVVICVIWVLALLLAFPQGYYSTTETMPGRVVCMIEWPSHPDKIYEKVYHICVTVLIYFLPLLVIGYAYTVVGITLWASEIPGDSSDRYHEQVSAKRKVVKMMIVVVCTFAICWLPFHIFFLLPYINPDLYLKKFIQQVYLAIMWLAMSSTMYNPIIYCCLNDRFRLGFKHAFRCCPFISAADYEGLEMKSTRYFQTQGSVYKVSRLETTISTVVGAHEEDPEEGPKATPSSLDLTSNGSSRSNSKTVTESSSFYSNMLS

| SMILES | Controlling effect on rice blight (Pyricularia oryzae) by foliage application at 500 ppm (% control) (Pyricularia oryzae) [%] | ED50 (tachykinin receptor [1]) [mg/kg] | ED50 (tachykinin receptor [2]) [mg/kg] |
| --- | --- | --- | --- |
| C=CCON=C(C)C(=NOCc1ccc(OC)cc1Cl)C(=O)N(C)C [Compound C-95] | 90 | – | – |
| C=CCON=C(C(=O)N1CCN(C)CC1)C(C)=NOCc1ccccc1 [b-180] | – | 0.087 | 0.054 |
| CON=C(C)C(=NOCc1ccccc1Cl)C(=O)N(C)C [Compound C-11] | 90 | – | – |
| C=CCON=C(C)C(=NOCc1ccc(Cl)c(Cl)c1)C(=O)N1CCOCC1 [Compound W-96] | – | – | 0.04 |
| C=CCON=C(C)C(=NOCc1ccccc1Cl)C(=O)N(C)C [Compound C-86] | 90 | – | – |
| C=CCON=C(C)C(=NOCc1ccc(Cl)c(Cl)c1)C(=O)N(C)C [Compound C-96] | 90 | – | – |
| CON=C(C(=O)N1CCN(C)CC1)C(C)=NOCc1ccccc1Cl [Compound b-251] | – | 0.017 | 0.017 |
| CON=C(C)C(=NOCc1ccccc1Cl)C(=O)N1CCC(NC(C)=O)CC1 [Compound M-11] | – | – | 0.024 |
| CON=C(C(=O)N1CCOCC1)C(C)=NOCc1ccccc1 [Compound W-176] | – | 0.075 | 0.145 |
| C=CCON=C(C)C(=NOCc1ccccc1Cl)C(=O)N1CCC(NC(C)=O)CC1 [Compound M-86] | – | – | 0.085 |
| O=C1OCc2c(Cl)c(Cl)c(Cl)c(Cl)c21 [Fthalide, reference compound] | 97 | – | – |
